Experimental data published in patent US20140163083A1, “NOVEL CRYSTALLINE SALTS OF ASENAPINE” (SANDOZ AG, priority 2011, published 2014).
Counter-ions that a name gives are not always drawn.

What was measured:
[1] = 23° C., pH=4.4; cited from earlier work
[2] = Saturated solution of the maleate salt (Funke et al., literature); type: physicochemical; conditions: water, thermodynamic from solid; translated from saturated solution of the maleate at 23° C., pH=4.4; read-out: free base solubility
[3] = Hygroscopic nature by dynamic vapor sorption; type: physicochemical; conditions: relative humidities greater than about 20%
Text: The hygroscopic nature of the succinate salt hemihydrate was investigated by dynamic vapor sorption.

Row | Compound | concentration of saturated solution [1] [mg/mL] | solubility [2] [µg/mL] | water content by dynamic vapor sorption [3] [%]
1 | CN1C[C@@H]2c3ccccc3Oc3ccc(Cl)cc3[C@H]2C1 (relative stereo) [maleate salt of Asenapine, trans-5-chloro-2-methyl-2,3,3a,12b-tetrahydro-1H-dibenz[2,3:6,7]oxepino[4,5-c]pyrrole] | 5.8 | ~4100 | –
2 | Asenapine succinate form I [succinate salt hemihydrate] | – | – | 2 to 2.5
